{"source": "patent US20160326098A1", "about": "“Pharmaceutically Active Compound for Use as Anti-inflammatory Agent” (Pax Forschung GmbH, priority 2013, published 2016)", "tested_on": "nitrite/nitrate (NOx)", "experiment": "Nitrite/nitrate level, colitis animals, comparison with GM-20 (FIG. 35)", "assay_type": "in vivo, rats", "conditions": "1.11 mmol/kg body weight, vs sham control group P", "experimental": "The levels of plasma nitrite/nitrate (NOx), stable end products of NO were measured by the Griess reaction. This assay depends on the reduction of nitrate to nitrite, which is then converted into a colored azo dye compound that is detected spectrophotometrically at 540 nm.\nThe above-described clinical studies were repeated with animals having colitis which was induced as described above. 20 animals (rats) were randomly divided into four groups, wherein group L served as sham-operated control, having no colitis, group M served as second control having colitis but receiving no further treatment, group N having colitis and being treated with 1.11 mmol/kg body weight of ASS and group O having colitis and being treated with 1.11 mmol/kg of the compound according to the invention. One day after the animals received the enema with TNBS (40 mg/kg i.c.), wherein the animals of group L only received the respective solvent, the animals of group N and O were treated with ASS and the compound according to the invention, respectively. The other animals only received the respective solvent again. Two days after the enema the effects of the treatment were determined by measurement of body weight, blood gas analysis and biopsy. […] Surgery was performed to allow registration of the hemodynamic parameters at 1 h intervals for 6 h (cardiac output [CO] data were measured only at the end of the experiments). […] In addition, fluorescence confocal endomicroscopy was performed to examine the microvasculature and morphologic changes of the mucosa of the distal colon, and full-thickness tissue samples and venous blood samples were taken to determine the biochemical changes in the colon and plasma.\nThe tests were conducted according to the above described protocol. […] Comparative compound GM-20 is described in the state of the art as being suitable for the therapeutic treatment pathologic disorders characterized by degranulation of the mast cells caused by immunogenic hyperstimulation (see U.S. Pat. No. 5,506,224) The nitrite/nitrate level was measured as described above.", "data": [{"smiles": "CC(=O)Oc1ccccc1C(=O)NCCO", "note": "[GM-20]", "values": [{"measurement": "nitrite/nitrate level", "value": "increased nitrite/nitrate level"}]}]}
